Results: article PMC7191384, “Multimodal α-Glucosidase and α-Amylase Inhibition and Antioxidant Effect of the Aqueous and Methanol Extracts from the Trunk Bark of Ceiba pentandra” (BioMed Research International, 2020)
Blank lines part the entries; values can stand above or below the molecule they belong to.

How the values were obtained:
[1] = target: T1, α-glucosidase (Saccharomyces cerevisiae, UniProt P53341); experiment: α-Glucosidase inhibitory test (pNPG); assay type: biochemical; details: according to the efficacy index
T1 construct: purchased Sigma-Aldrich Chemical Co. (Taufkirchen, Germany)
T1 sequence (P53341 whole entry): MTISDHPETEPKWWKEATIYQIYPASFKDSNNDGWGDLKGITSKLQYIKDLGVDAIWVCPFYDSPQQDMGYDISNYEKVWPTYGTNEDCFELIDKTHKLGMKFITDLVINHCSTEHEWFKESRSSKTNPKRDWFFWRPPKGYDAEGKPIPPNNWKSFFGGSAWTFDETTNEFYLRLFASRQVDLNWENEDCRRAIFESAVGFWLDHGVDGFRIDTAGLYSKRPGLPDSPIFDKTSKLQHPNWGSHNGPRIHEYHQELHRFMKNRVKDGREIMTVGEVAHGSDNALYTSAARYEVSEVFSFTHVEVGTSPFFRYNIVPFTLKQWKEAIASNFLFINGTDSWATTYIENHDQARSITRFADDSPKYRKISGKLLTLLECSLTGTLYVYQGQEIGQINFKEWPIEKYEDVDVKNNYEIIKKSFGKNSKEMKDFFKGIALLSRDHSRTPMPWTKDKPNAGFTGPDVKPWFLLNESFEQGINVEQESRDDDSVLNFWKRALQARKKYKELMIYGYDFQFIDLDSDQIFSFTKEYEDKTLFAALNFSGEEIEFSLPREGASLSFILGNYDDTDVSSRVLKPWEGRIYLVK
Protocol: The ability of C. pentandra extracts to inhibit the activity of α-glucosidase was assessed according to Kim et al.'s protocol. Shortly, α-glucosidase (1 U/ml) from Saccharomyces cerevisiae was preincubated with 250 μl extracts for 10 minutes. P-nitrophenyl glucopyranoside substrate solution (pNPG, 3 mM) prepared in 20 mM phosphate buffer (pH 6.9) containing 2 mg/ml BSA was added to start the reaction. The reaction mixture was incubated at 37°C for 20 minutes and stopped with 1 ml of Na2CO3 (1 M). α-Glucosidase activity was determined by measuring paranitrophenol released from pNPG at 405 nm. The percent inhibition was calculated as follows: (3) %inhibition=OD control−OD sample/OD control×100.

[2] = Hydrogen peroxide scavenging activity
Protocol: A method previously described by Ruch et al. was used to assess the ability of plant extracts to decompose hydrogen peroxide (H2O2). Briefly, a 40 mM solution of H2O2 prepared in phosphate buffer (pH 7.4) was mixed with graded concentrations (1-300 μg/ml) of extracts or ascorbic acid. After 10 min of incubation, optical densities were read at 230 nm against a blank solution made up of phosphate buffer without H2O2. The percentage of H2O2 scavenging activity was calculated as in the previous test.

[3] = Superoxide anion scavenging test (PMS-NADH/NBT)
Protocol: Superoxide anions were generated in a phenazine methosulfate- (PMS-) NADH system. The reaction mixture was made of 0.5 ml test solution, 0.95 ml 0.1 M phosphate buffer (pH 7.4), 0.5 ml […] in phosphate buffer (pH 7.4). Extracts were used at concentrations of 1, 3, 10, 30, 100, and 300 μg/ml. Gallic acid was tested at the same concentrations and used as a reference drug. Reduction of nitroblue tetrazolium was monitored at 560 nm on a Helios Epsilon Spectrophotometer (Thermo Fisher Scientific). The test was carried out in triplicate. The percent inhibition was calculated as follows: […]

[4] = test system: BSA oxidation induced by H2O2; experiment: H2O2-induced protein oxidation assay (BSA thiol groups); set-up: species or system bovine
Protocol: (§1) The effect of plant extracts against protein oxidation was evaluated according to the method of Simplicio et al. with some modifications. Zero point five milliliter aliquots of BSA (30 mg/ml) prepared in phosphate buffer saline (50 mM, pH 7.4) were incubated with 0.5 ml of extracts or gallic acid. Fifteen minutes later, 0.5 ml of H2O2 (20 mM) or AAPH (2′,2′-azobis (2-methylpropionamidine) dihydrochloride) solution (50 mM) in another set of experiment, was added to the reaction medium and incubated at 37°C for 30 minutes and 1 hour, respectively. Proteins were precipitated with ammonium sulfate (70%) followed by vigorous shaking and centrifugation at 3000 rpm. The pellet obtained was resuspended in 1.5 ml of PBS, and 0.2 ml of Ellman's reagent was introduced. The level of thiol groups was measured 10 minutes later at 412 nm.

[5] = test system: BSA oxidation induced by AAPH; experiment: AAPH-induced protein oxidation assay (BSA thiol groups); set-up: species or system bovine
Protocol: as §1

Structure (SMILES): C[C@H]1O[C@H](O[C@H]2[C@H](O)[C@@H](O)[C@@H](O[C@H]3[C@H](O)[C@@H](O)C(O)O[C@@H]3CO)O[C@@H]2CO)[C@H](O)[C@@H](O)[C@@H]1N[C@H]1C=C(CO)[C@@H](O)[C@H](O)[C@H]1O (stereo partly shown) [Acarbose, acarbose]
α-Glucosidase: inhibitory effect, times greater than that of the methanol extract [1]: 10 times
α-Glucosidase: inhibitory effect, times the magnitude of the aqueous extract [1]: more than 15 times

Hydrogen peroxide IC50 ([2]; 1-300 μg/ml, 10 min incubation): 13.84 µg/mL
Structure (SMILES): O=C1O[C@H]([C@@H](O)CO)C(O)=C1O [Ascorbic acid, ascorbic acid]
Hydrogen peroxide EI (efficiency index) [2]: 4.77

Superoxide anion EI (efficiency index, maximal activity/IC50) [3]: 1.43
Superoxide anion IC50 ([3]; concentrations 1-300 μg/ml): 55.66 µg/mL
H2O2 protein oxidation IC50 ([4]; BSA, H2O2 20 mM, 37°C, 30 minutes): 29.9 µg/mL
AAPH protein oxidation IC50 ([5]; BSA, AAPH 50 mM, 37°C, 1 hour): 90.17 µg/mL
Structure (SMILES): O=C(O)c1cc(O)c(O)c(O)c1 [Gallic acid, gallic acid]
H2O2 protein oxidation EI (efficiency index) [4]: 1.74
AAPH protein oxidation EI (efficiency index) [5]: 0.64
